Data: the kinase profiling compilation of Christmann-Franck et al. (2016)

How the values were obtained:
Assay in all cases: radiometric filter-binding kinase assay, Kinase HotSpot
Conditions in all cases: compound 0.5 µM; ATP 10 µM
CDK1 CCNB1 (human) = CDK1 CCNB1 (human) (UniProt P06493+P14635)
PDPK1 (human) = PDPK1 (human) (UniProt O15530)
CHEK1 (human) = CHEK1 (human) (UniProt O14757)
JAK3 JH1 JH2 (human) = JAK3 JH1 JH2 (human) (UniProt P52333)
PDGFRB (human) = PDGFRB (human) (UniProt P09619)
ABL2 (human) = ABL2 (human) (UniProt P42684)
FGR (human) = FGR (human) (UniProt P09769)
TTK (human) = TTK (human) (UniProt P33981)
OXSR1 (human) = OXSR1 (human) (UniProt O95747)
PRKCI (human) = PRKCI (human) (UniProt P41743)
PAK3 (human) = PAK3 (human) (UniProt O75914)
KDR (human) = KDR (human) (UniProt P35968)
LRRK2 (human) = LRRK2 (human) (UniProt Q5S007)
DAPK3 (human) = DAPK3 (human) (UniProt O43293)
MAP4K2 (human) = MAP4K2 (human) (UniProt Q12851)
CAMK4 (human) = CAMK4 (human) (UniProt Q16566)
DYRK1B (human) = DYRK1B (human) (UniProt Q9Y463)
HCK (human) = HCK (human) (UniProt P08631)
CHEK2 (human) = CHEK2 (human) (UniProt O96017)
MARK2 (human) = MARK2 (human) (UniProt Q7KZI7)
PHKG2 (human) = PHKG2 (human) (UniProt P15735)
NUAK1 (human) = NUAK1 (human) (UniProt O60285)
PAK4 (human) = PAK4 (human) (UniProt O96013)
CAMK1D (human) = CAMK1D (human) (UniProt Q8IU85)
CSNK2A2 (human) = CSNK2A2 (human) (UniProt P19784)
MAP3K3 (human) = MAP3K3 (human) (UniProt Q99759)
DYRK1A (human) = DYRK1A (human) (UniProt Q13627)
TEK (human) = TEK (human) (UniProt Q02763)
CDK9 CCNT1 (human) = CDK9 CCNT1 (human) (UniProt P50750+O60563)
MARK1 (human) = MARK1 (human) (UniProt Q9P0L2)
PKN2 (human) = PKN2 (human) (UniProt Q16513)
STK11 (human) = STK11 (human) (UniProt Q15831)
VRK1 (human) = VRK1 (human) (UniProt Q99986)
ACVRL1 (human) = ACVRL1 (human) (UniProt P37023)
MINK1 (human) = MINK1 (human) (UniProt Q8N4C8)
DYRK4 (human) = DYRK4 (human) (UniProt Q9NR20)
PTK6 (human) = PTK6 (human) (UniProt Q13882)
MAP2K2 (human) = MAP2K2 (human) (UniProt P36507)
FRK (human) = FRK (human) (UniProt P42685)
PRKCZ (human) = PRKCZ (human) (UniProt Q05513)
MAP3K11 (human) = MAP3K11 (human) (UniProt Q16584)
PRKCA (human) = PRKCA (human) (UniProt P17252)

Chain of PTK6 (human) (Q13882 whole entry, looked up): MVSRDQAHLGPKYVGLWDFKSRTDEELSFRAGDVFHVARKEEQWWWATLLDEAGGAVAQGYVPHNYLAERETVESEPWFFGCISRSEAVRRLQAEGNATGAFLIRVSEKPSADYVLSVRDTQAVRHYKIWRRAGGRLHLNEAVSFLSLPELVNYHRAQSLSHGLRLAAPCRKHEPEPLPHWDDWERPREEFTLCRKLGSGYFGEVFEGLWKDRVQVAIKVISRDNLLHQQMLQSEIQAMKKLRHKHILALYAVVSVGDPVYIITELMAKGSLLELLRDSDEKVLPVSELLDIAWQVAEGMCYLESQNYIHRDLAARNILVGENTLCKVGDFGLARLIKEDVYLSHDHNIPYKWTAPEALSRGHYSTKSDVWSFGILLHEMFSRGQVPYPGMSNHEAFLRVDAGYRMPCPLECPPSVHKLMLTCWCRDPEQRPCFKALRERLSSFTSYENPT
Chain of MINK1 (human) (Q8N4C8 whole entry, looked up): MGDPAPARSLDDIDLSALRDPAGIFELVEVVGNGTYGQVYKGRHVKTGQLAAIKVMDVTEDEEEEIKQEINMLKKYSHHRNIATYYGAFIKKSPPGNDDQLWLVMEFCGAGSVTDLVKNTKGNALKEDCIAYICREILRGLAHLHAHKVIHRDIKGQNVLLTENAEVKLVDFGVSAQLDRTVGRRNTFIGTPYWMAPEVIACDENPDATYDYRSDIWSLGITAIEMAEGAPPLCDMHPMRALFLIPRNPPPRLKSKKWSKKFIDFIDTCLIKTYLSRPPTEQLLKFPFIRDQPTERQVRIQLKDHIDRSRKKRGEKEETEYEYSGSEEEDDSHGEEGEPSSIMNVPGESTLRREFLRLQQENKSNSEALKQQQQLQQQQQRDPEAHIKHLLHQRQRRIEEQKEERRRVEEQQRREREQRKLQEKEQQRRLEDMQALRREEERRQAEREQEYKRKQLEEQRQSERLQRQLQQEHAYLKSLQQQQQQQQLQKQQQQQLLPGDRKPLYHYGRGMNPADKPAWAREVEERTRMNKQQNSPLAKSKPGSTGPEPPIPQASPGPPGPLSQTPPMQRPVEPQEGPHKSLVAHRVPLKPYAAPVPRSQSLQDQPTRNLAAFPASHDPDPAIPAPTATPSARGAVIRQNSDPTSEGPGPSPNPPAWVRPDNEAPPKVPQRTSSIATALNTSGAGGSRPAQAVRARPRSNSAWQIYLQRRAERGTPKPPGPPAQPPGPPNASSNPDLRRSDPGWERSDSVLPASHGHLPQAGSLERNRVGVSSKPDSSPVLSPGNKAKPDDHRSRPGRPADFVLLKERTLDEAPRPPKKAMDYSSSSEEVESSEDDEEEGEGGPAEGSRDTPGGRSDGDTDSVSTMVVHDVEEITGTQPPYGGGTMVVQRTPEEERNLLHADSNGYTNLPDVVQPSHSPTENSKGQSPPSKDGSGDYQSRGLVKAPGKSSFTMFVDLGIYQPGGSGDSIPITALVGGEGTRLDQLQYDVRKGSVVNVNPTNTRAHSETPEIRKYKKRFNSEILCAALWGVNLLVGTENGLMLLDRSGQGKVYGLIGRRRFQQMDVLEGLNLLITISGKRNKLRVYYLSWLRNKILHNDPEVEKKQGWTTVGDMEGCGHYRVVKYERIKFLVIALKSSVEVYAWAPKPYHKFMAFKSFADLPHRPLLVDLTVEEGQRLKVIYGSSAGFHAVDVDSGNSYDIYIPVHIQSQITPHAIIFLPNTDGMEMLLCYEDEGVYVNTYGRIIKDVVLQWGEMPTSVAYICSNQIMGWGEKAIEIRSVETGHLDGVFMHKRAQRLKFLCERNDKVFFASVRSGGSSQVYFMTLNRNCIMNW
Chain of MAP3K11 (human) (Q16584 whole entry, looked up): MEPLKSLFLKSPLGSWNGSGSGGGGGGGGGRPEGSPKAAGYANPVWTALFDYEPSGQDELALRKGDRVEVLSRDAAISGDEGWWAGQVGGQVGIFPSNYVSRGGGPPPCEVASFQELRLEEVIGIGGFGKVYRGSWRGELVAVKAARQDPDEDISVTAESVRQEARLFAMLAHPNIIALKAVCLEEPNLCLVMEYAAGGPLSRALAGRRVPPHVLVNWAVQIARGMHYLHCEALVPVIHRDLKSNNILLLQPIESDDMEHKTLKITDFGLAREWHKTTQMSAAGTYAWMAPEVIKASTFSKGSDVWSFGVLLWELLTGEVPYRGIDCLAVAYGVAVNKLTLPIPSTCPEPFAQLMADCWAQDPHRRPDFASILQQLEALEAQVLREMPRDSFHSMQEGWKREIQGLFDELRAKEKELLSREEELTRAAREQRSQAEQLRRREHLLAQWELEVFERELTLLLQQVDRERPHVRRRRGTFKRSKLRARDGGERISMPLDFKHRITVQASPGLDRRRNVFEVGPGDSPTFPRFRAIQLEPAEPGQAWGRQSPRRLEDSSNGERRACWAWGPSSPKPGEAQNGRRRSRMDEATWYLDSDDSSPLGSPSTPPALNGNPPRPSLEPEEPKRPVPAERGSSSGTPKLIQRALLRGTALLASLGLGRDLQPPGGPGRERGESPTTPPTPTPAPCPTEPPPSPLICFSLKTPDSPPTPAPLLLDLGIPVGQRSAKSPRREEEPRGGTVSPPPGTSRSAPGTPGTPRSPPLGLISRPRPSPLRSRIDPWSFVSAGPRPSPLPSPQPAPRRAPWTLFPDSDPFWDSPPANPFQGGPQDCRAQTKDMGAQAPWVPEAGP
Chain of CHEK2 (human) (O96017 whole entry, looked up): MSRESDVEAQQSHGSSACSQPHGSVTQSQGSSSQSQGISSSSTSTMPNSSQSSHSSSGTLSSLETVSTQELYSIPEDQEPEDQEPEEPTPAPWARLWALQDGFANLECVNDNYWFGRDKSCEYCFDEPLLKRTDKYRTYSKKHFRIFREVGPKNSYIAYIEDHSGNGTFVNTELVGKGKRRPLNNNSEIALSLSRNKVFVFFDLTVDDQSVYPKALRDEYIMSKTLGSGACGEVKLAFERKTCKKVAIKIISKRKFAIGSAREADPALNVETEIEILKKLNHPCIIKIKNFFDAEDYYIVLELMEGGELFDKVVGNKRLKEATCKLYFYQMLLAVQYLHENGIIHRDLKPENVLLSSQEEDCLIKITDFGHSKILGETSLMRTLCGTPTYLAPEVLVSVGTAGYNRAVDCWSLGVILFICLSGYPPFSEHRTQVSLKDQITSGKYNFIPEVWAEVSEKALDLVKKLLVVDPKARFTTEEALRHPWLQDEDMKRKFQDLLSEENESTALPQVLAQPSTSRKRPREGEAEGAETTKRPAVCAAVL
Chain of CDK9 CCNT1 (human) (O60563 whole entry, looked up): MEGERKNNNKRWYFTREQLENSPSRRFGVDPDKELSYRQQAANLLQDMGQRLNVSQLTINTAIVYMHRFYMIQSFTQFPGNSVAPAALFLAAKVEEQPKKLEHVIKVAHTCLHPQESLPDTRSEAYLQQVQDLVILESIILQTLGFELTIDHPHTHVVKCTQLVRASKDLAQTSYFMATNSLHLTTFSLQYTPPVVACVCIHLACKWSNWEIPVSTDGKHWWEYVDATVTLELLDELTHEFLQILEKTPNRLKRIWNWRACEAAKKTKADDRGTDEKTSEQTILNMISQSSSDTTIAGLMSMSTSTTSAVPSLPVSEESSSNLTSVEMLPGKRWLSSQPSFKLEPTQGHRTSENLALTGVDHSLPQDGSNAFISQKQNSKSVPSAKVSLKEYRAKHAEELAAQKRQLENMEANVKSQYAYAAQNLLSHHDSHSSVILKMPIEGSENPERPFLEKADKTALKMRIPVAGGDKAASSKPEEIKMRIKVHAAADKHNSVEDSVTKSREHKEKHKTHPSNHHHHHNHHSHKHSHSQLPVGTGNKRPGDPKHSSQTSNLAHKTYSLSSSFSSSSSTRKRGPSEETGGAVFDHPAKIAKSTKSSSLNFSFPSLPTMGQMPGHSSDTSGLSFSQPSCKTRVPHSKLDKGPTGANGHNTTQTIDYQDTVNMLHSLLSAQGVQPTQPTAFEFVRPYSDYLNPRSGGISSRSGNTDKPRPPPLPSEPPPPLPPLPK
Chain of CDK9 CCNT1 (human) (P50750 whole entry, looked up): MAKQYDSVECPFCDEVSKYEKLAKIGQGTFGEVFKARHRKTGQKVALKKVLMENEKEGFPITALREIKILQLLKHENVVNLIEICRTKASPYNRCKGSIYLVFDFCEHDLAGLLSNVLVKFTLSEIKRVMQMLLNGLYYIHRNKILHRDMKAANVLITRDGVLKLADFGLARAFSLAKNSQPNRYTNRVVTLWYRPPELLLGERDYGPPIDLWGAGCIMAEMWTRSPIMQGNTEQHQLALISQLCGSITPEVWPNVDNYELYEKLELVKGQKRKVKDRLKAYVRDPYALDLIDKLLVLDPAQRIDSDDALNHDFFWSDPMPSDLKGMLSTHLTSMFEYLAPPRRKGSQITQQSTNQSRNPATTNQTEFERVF

In the case of O=C1Nc2ccccc2/C1=C1\Nc2ccccc2\C1=N/O, the residual activity (CDK1 CCNB1 (human)) is reported as 68.7%, the residual activity (PDPK1 (human)) is reported as 93% and the residual activity (CHEK1 (human)) is reported as 65.3%. The residual activity (JAK3 JH1 JH2 (human)) was 51.5%, the residual activity (PDGFRB (human)) was 72.6% and the residual activity (ABL2 (human)) was 60.3%. It also gave a residual activity (FGR (human)) of 35.7%, a residual activity (TTK (human)) of 68% and a residual activity (OXSR1 (human)) of 91.7%. The residual activity (PRKCI (human)) was 92.2%, the residual activity (PAK3 (human)) was 92.6% and the residual activity (KDR (human)) was 72.9%. It also gave a residual activity (LRRK2 (human)) of 91.6%, a residual activity (DAPK3 (human)) of 94.4% and a residual activity (MAP4K2 (human)) of 57.3%. It also gave a residual activity (CAMK4 (human)) of 97.4%, a residual activity (DYRK1B (human)) of 84.7% and a residual activity (HCK (human)) of 60.2%. The residual activity (CHEK2 (human)) was 32.3%, the residual activity (MARK2 (human)) was 78.4% and the residual activity (PHKG2 (human)) was 60.7%. For the same compound, the residual activity (NUAK1 (human)) was 8.89%, the residual activity (PAK4 (human)) was 77.1% and the residual activity (CAMK1D (human)) was 92.3%. The residual activity (CSNK2A2 (human)) was 75%, the residual activity (MAP3K3 (human)) was 94.4% and the residual activity (DYRK1A (human)) was 105%. For the same compound, the residual activity (TEK (human)) was 98.7%, the residual activity (CDK9 CCNT1 (human)) was 75.2% and the residual activity (MARK1 (human)) was 74.8%. It also gave a residual activity (PKN2 (human)) of 97.8%, a residual activity (STK11 (human)) of 25.6% and a residual activity (VRK1 (human)) of 86.3%. It also gave a residual activity (ACVRL1 (human)) of 108%, a residual activity (MINK1 (human)) of 50.2% and a residual activity (DYRK4 (human)) of 96.8%. For the same compound, the residual activity (PTK6 (human)) was 97.2%, the residual activity (MAP2K2 (human)) was 100% and the residual activity (FRK (human)) was 73.3%. For the same compound, the residual activity (PRKCZ (human)) was 95.2%, the residual activity (MAP3K11 (human)) was 17.3% and the residual activity (PRKCA (human)) was 97.7%.
Work on O=C(Nc1cccc(Nc2cc(Nc3cccc(C(F)(F)F)c3)ncn2)c1)C1CC1 yielded a residual activity (CDK1 CCNB1 (human)) of 96.4%, a residual activity (PDPK1 (human)) of 100% and a residual activity (CHEK1 (human)) of 105%. For the same compound, the residual activity (JAK3 JH1 JH2 (human)) was 106%, the residual activity (PDGFRB (human)) was 101% and the residual activity (ABL2 (human)) was 100%. It also gave a residual activity (FGR (human)) of 96.4%, a residual activity (TTK (human)) of 98.7% and a residual activity (OXSR1 (human)) of 110%. It also gave a residual activity (PRKCI (human)) of 98.1%, a residual activity (PAK3 (human)) of 101% and a residual activity (KDR (human)) of 101%. For the same compound, the residual activity (LRRK2 (human)) was 95.6%, the residual activity (DAPK3 (human)) was 99.8% and the residual activity (MAP4K2 (human)) was 116%. For the same compound, the residual activity (CAMK4 (human)) was 98.5%, the residual activity (DYRK1B (human)) was 105% and the residual activity (HCK (human)) was 99%. It also gave a residual activity (CHEK2 (human)) of 99.5%, a residual activity (MARK2 (human)) of 101% and a residual activity (PHKG2 (human)) of 101%. It also gave a residual activity (NUAK1 (human)) of 102%, a residual activity (PAK4 (human)) of 103% and a residual activity (CAMK1D (human)) of 100%. For the same compound, the residual activity (CSNK2A2 (human)) was 94.9%, the residual activity (MAP3K3 (human)) was 95.2% and the residual activity (DYRK1A (human)) was 104%. The residual activity (TEK (human)) was 101%, the residual activity (CDK9 CCNT1 (human)) was 97.2% and the residual activity (MARK1 (human)) was 102%. It also gave a residual activity (PKN2 (human)) of 95.9%, a residual activity (STK11 (human)) of 100% and a residual activity (VRK1 (human)) of 94%. It also gave a residual activity (ACVRL1 (human)) of 114%, a residual activity (MINK1 (human)) of 95.9% and a residual activity (DYRK4 (human)) of 98%. For the same compound, the residual activity (PTK6 (human)) was 98.4%, the residual activity (MAP2K2 (human)) was 101% and the residual activity (FRK (human)) was 102%. It also gave a residual activity (PRKCZ (human)) of 104%, a residual activity (MAP3K11 (human)) of 97.7% and a residual activity (PRKCA (human)) of 101%.
With O=C1Cc2c([nH]c3ccc(Br)cc23)-c2ccccc2N1 the residual activity (CDK1 CCNB1 (human)) was 80.6%, the residual activity (PDPK1 (human)) was 94.9% and the residual activity (CHEK1 (human)) was 89%. The residual activity (JAK3 JH1 JH2 (human)) was 103%, the residual activity (PDGFRB (human)) was 93.2% and the residual activity (ABL2 (human)) was 84.9%. The residual activity (FGR (human)) was 74.4%, the residual activity (TTK (human)) was 80.9% and the residual activity (OXSR1 (human)) was 107%. For the same compound, the residual activity (PRKCI (human)) was 89.1%, the residual activity (PAK3 (human)) was 96.6% and the residual activity (KDR (human)) was 98.1%. The residual activity (LRRK2 (human)) was 78.7%, the residual activity (DAPK3 (human)) was 111% and the residual activity (MAP4K2 (human)) was 20.1%. It also gave a residual activity (CAMK4 (human)) of 98.1%, a residual activity (HCK (human)) of 85.5% and a residual activity (CHEK2 (human)) of 59%. It also gave a residual activity (MARK2 (human)) of 74.3%, a residual activity (PHKG2 (human)) of 98.9% and a residual activity (NUAK1 (human)) of 14.6%. The residual activity (PAK4 (human)) was 92.2%, the residual activity (CAMK1D (human)) was 112% and the residual activity (CSNK2A2 (human)) was 74.6%. The residual activity (MAP3K3 (human)) was 93.2%, the residual activity (DYRK1A (human)) was 98.8% and the residual activity (TEK (human)) was 106%. For the same compound, the residual activity (CDK9 CCNT1 (human)) was 31.3%, the residual activity (MARK1 (human)) was 88.3% and the residual activity (PKN2 (human)) was 96.8%. It also gave a residual activity (STK11 (human)) of 95.7%, a residual activity (VRK1 (human)) of 87.3% and a residual activity (ACVRL1 (human)) of 99%. For the same compound, the residual activity (MINK1 (human)) was 29.6%, the residual activity (DYRK4 (human)) was 97.2% and the residual activity (PTK6 (human)) was 87.7%. It also gave a residual activity (MAP2K2 (human)) of 116%, a residual activity (FRK (human)) of 97.4% and a residual activity (PRKCZ (human)) of 98.3%. It also gave a residual activity (MAP3K11 (human)) of 49.4% and a residual activity (PRKCA (human)) of 98.6%.
Work on CC(C)[C@H](CO)Nc1nc(Nc2cc(N)cc(Cl)c2)c2ncn(C(C)C)c2n1 yielded a residual activity (PDPK1 (human)) of 106%, a residual activity (CHEK1 (human)) of 96.2% and a residual activity (JAK3 JH1 JH2 (human)) of 108%. The residual activity (PDGFRB (human)) was 98.1%, the residual activity (ABL2 (human)) was 21.3% and the residual activity (FGR (human)) was 15%. The residual activity (TTK (human)) was 84.5%, the residual activity (OXSR1 (human)) was 100% and the residual activity (PRKCI (human)) was 89.6%. The residual activity (PAK3 (human)) was 101%, the residual activity (KDR (human)) was 101% and the residual activity (LRRK2 (human)) was 101%. For the same compound, the residual activity (DAPK3 (human)) was 96.7%, the residual activity (MAP4K2 (human)) was 90.7% and the residual activity (CAMK4 (human)) was 97.4%. It also gave a residual activity (DYRK1B (human)) of 38.3%, a residual activity (HCK (human)) of 27.3% and a residual activity (CHEK2 (human)) of 96.3%. The residual activity (MARK2 (human)) was 74.1%, the residual activity (PHKG2 (human)) was 105% and the residual activity (NUAK1 (human)) was 61.5%. For the same compound, the residual activity (PAK4 (human)) was 102%, the residual activity (CAMK1D (human)) was 103% and the residual activity (CSNK2A2 (human)) was 106%. For the same compound, the residual activity (MAP3K3 (human)) was 100%, the residual activity (DYRK1A (human)) was 57.1% and the residual activity (TEK (human)) was 92.5%. It also gave a residual activity (MARK1 (human)) of 87.5%, a residual activity (PKN2 (human)) of 98% and a residual activity (STK11 (human)) of 60.3%. For the same compound, the residual activity (VRK1 (human)) was 85.8%, the residual activity (ACVRL1 (human)) was 109% and the residual activity (MINK1 (human)) was 94.5%. For the same compound, the residual activity (DYRK4 (human)) was 91.6%, the residual activity (PTK6 (human)) was 85.6% and the residual activity (MAP2K2 (human)) was 87.5%. It also gave a residual activity (FRK (human)) of 70.3%, a residual activity (PRKCZ (human)) of 101% and a residual activity (MAP3K11 (human)) of 17.7%. The residual activity (PRKCA (human)) was 66.1%.
